“Also recorded” adds a separate entry of the source.
Legend:
[1] = test system: C. difficile spores (ribotype 027); test: Antimicrobial survey: continuous exposure of spores in water for six days, spore counts by plating; conditions: 37 °C, D0-D6
[2] = test system: C. difficile spores (ribotype 027), exosporium; test: Dependency of activity on exosporium: intact versus stripped (processed) spores exposed to ramoplanin; assay type: cell-based, Clostridium difficile
Procedure: C. difficile (027) exposure (30 min/37 C) to multiple doses of ramoplanin and to water was evaluated. Following ramoplanin exposure for 30 minutes, sampling occurred at days D0, D1, D7, D14, and D28. Without wishing to be bound by any particular theory, sampling over time may characterize the duration of effect having clinical implication on the duration of oral therapy. From each level at each time point, three aliquots were taken (i.e. n=3 for each subsequent assay) and each washed 6 times before the spore re-suspension. Each wash (100 only) and spore suspension (100, 10-1 10-2) were counted on NaTBA and assayed for ramoplanin by a zone of inhibition assay using S. salivarius.
From this example, it appears that the absence of a spore exosporium diminishes the bactericidal effect of Ramoplanin. Following enzyme digest and sonication of spore prep (Cortes et. al.) to removal the exosporium, the spores were exposed (027) to single dose of Ramoplanin (600 mcg/mL) vs water for 30 min and sampled (supernatant and prep) at 1 time point (T0).
Spore exosporia were removed as described by Escobar-Cortes et al. 2013. Proteases and sonication specifically remove the exosporium layer of spores of C. difficile strain 630. […] Briefly, spores were washed four times by centrifugation (10 minutes at 10,000×g) and resuspended in deionized water followed by final resuspension in 15 mL of PBS and sonicated for 90 seconds. Three mL of 10% Sarkosyl (detergent) were added to each preparation and subsequently incubated 15 minutes at room temperature with rocking. Preparations were then centrifuged for 10 minutes at 10,000×g, and pellets were resuspended in 10 mL PBS with 0.1 mL of 1M Tris and 10 mg of lysozyme. Spores were rocked overnight at 37±2° C. and then sonicated for 90 seconds, passed through a 50% solution of sucrose using a swinging bucket rotor for 20 minutes at 4,000×g, and resuspended in a solution containing 3 mL PBS, 200 mM EDTA, 300 ng/mL Proteinase K and 1% Sarkosyl. The spores were further rocked at room temperature for 20 minutes and were passed through a 50% solution of sucrose as previously described by Sabja et al, Id. Next, the spores were washed in deionized water by two centrifugation steps for 10 minutes at 10,000×g and resuspended in deionized water; plating and incubation were carried out as described in the foregoing text.
Adherence of ramoplanin to C. difficile exosporium: In order to determine whether the exosporium was essential to the observed growth-inhibiting effects of ramoplanin, the exosporia were processed as described in Escobar-Cortes et al, 2013, resulting in spores with “stripped” exosporia, and then compared to unprocessed spores (with “intact” exosporia) under three separate conditions (all ramoplanin concentrations were 300 μg/mL): (1) ramoplanin exposure with no subsequent spore processing (i.e., “intact”), (2) ramoplanin exposure with subsequent spore processing (i.e., “stripped”), and (3) water exposure with subsequent spore processing (FIG. 6). […] After ramoplanin exposure, the difference in spore counts between samples that were not processed (with presumed intact exposporia) and samples that were processed (without presumed exposporia) was significant (p<0.0001). No difference in spore count was noted when comparing processed spores that had been exposed to ramoplanin to spores exposed only to water (p=0.389).

[3] = test system: C. difficile spores (ribotype 027); test: Dose-dependent sporicidal assay: spores exposed to ramoplanin, washed 6 times, plated on NaTBA; assay type: cell-based, Clostridium difficile
Procedure: C. difficile exposure at three levels of ramoplanin (2, 300, 600 μg/mL) and to water was evaluated. […] The wash supernatant fluids (n=6/level) and the final spore suspensions (n=1/level) were counted by plating three 10-fold serial dilutions on NaTaurocholate Blood Agar (NaTBA). Each set of three counts were averaged and compared by t-test.

[4] = test system: C. difficile spores (ribotype 027); test: Longevity / persistence assay: 30 min ramoplanin exposure, six washes, storage in water to day 28, spore counts; assay type: cell-based, Clostridium difficile; conditions: for spore growth when plated undiluted: to day 28
Procedure: As above, C. difficile (027) was exposed to multiple doses of Ramoplanin (30 min/37 C) and to water, stored at 37 C (anaerobic), and sampled at days D0, D1 D7, D14, and D28. […] From each level at each time, three aliquots were taken (i.e. n=3 for each subsequent assay) and each washed 6 times before the spore resuspension. Each wash (100 only) and spore suspension (100, 10-1 10-2) were counted on NaTBA.

## CN[C@H](CC(C)C)C(=O)N[C@H]1C(=O)N[C@@H](CC(N)=O)C(=O)N[C@H]2C(=O)N[C@H]3C(=O)N[C@H](C(=O)N[C@H](C(=O)O)c4cc(O)cc(O)c4-c4cc3ccc4O)[C@H](O)c3ccc(c(Cl)c3)Oc3cc2cc(c3O[C@@H]2O[C@H](CO)[C@@H](O)[C@H](O)[C@H]2O[C@H]2C[C@](C)(N)[C@H](O)[C@H](C)O2)Oc2ccc(cc2Cl)[C@H]1O [vancomycin]
[1]; vancomycin 500 μg/mL
  spore counts on continuous exposure, compared to baseline: did not significantly reduce spore counts

## Cc1ncc([N+](=O)[O-])n1CCO [metronidazole]
[1]; metronidazole 10 μg/mL
  spore counts on continuous exposure, compared to baseline: did not significantly reduce spore counts

## ramoplanin
[2]; after multiple washes
  growth-inhibitory effect when exosporia were removed before or after exposure: not present
[2]; ramoplanin 300 μg/mL, exosporia removed after exposure
  spore counts, spores processed after exposure (stripped exosporia): counts equivalent to water exposure
[2]; ramoplanin 300 μg/mL, no subsequent spore processing
  spore growth, unprocessed spores (intact exosporia): no measurable counts; also recorded: no growth
[2]; ramoplanin 600 μg/mL, 30 min
  C. difficile recovery, spores stripped of the exosporium: high organism recovery
  C. difficile recovery, spores with intact exosporium: non-recoverable C. difficile
[3]; multiple washes (×6)
  persistence of bactericidal effect after washes: effect persists after multiple washes
[3]; no apparent difference in effect vs. time
  exposure time giving maximal effect: 30 min
[3]; ramoplanin 300 μg/mL (below fecal level), ribotype 027
  viability of ramoplanin-exposed spores when plated: non-viable
[1]; ramoplanin 300 μg/mL
  spore counts on continuous exposure: no counts; also recorded: no growth
[4]; 30 min/37 C exposure, 6 washes, stored at 37 C anaerobic
  organism recovery from 30 min after exposure and wash through day 28: no organisms are recoverable
[4]; ramoplanin 2 μg/mL, 30 min exposure, over 28 days
  inhibition of spore growth relative to controls: no inhibition relative to controls
[4]; ramoplanin 2 μg/mL, 30 min exposure, six washes
  mean spore counts ±SEM over 28 days: 2.3×10^4±4.6×10^2
[4]; ramoplanin 300 μg/mL and 600 μg/mL, 30 min exposure
  spore counts after diluting samples 10×: growth not measurable at previous dilution; also recorded: spore counts similar to the 0 and 2 μg/mL exposed spores
[4]; ramoplanin 300 μg/mL, 30 min exposure, six washes
  spore growth when plated undiluted: no counts; also recorded: no growth
[4]; ramoplanin 600 μg/mL, 30 min exposure, six washes
  spore growth when plated undiluted: no counts; also recorded: no growth

Reference: patent US20170028016A1, “METHODS OF TREATMENT OF C. DIFFICILE SPORES WITH RAMOPLANIN” (Nanotherapeutics, Inc., priority 2014, published 2017)
